Measurements: PubChem BioAssay AID1963966 (Molecular Pharmacology Branch, DTP, NCI, 2024)
“And” between values parts separate entries of the source, which are not always exact repeats. Equal entries are not always repeated.

Tested on: 935938-334-R-J1-PDC spheroids with HUVEC/MSC, viability
Assay: Anticancer human tumor 935938-334-R-J1-PDC patient-derived small intestine adenocarcinoma cell line growth inhibition [PI3K]
Settings: for viability, T/C: stronger effect = lower value
Procedure, shortened: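 Combination activity was assessed by viability in multicellular tumor spheroids carrying HUVEC and MSC components. Agents were tested with PI3K inhibitors from a Cmax-based top dose (or 10 microM) downward in half-log increments.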

[1] = curve of first compound, second compound 0.0316 µM
[2] = curve of first compound, second compound 0.1 µM
[3] = curve of first compound, second compound 0.316 µM
[4] = curve of first compound, second compound 1 µM
[5] = second compound 0.0316 µM, first compound 0.0316 µM
[6] = second compound 0.0316 µM, first compound 0.1 µM
[7] = second compound 0.0316 µM, first compound 0.316 µM
[8] = second compound 0.0316 µM, first compound 1 µM
[9] = second compound 0.0316 µM, first compound 3.16 µM
[10] = second compound 0.0316 µM, first compound 10 µM
[11] = second compound 0.1 µM, first compound 0.0316 µM
[12] = second compound 0.1 µM, first compound 0.1 µM
[13] = second compound 0.1 µM, first compound 0.316 µM
[14] = second compound 0.1 µM, first compound 1 µM
[15] = second compound 0.1 µM, first compound 3.16 µM
[16] = second compound 0.1 µM, first compound 10 µM
[17] = second compound 0.316 µM, first compound 0.0316 µM
[18] = second compound 0.316 µM, first compound 0.1 µM
[19] = second compound 0.316 µM, first compound 0.316 µM
[20] = second compound 0.316 µM, first compound 1 µM
[21] = second compound 0.316 µM, first compound 3.16 µM
[22] = second compound 0.316 µM, first compound 10 µM
[23] = second compound 1 µM, first compound 0.0316 µM
[24] = second compound 1 µM, first compound 0.1 µM
[25] = second compound 1 µM, first compound 0.316 µM
[26] = second compound 1 µM, first compound 1 µM
[27] = second compound 1 µM, first compound 3.16 µM
[28] = second compound 1 µM, first compound 10 µM
[29] = curve of first compound, second compound 3.16 µM
[30] = curve of first compound, second compound 10 µM
[31] = second compound 3.16 µM, first compound 0.0316 µM
[32] = second compound 3.16 µM, first compound 0.1 µM
[33] = second compound 10 µM, first compound 0.0316 µM
[34] = second compound 10 µM, first compound 0.1 µM
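Also: compound exposure lasted seven days before viability was read.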
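For viability, T/C in this document: percent of vehicle DMSO treated spheroid viability so 100% = untreated.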

C#Cc1c(F)ccc2cc(O)cc(-c3ncc4c(N5CC6CCC(C5)N6)nc(OCC56CCCN5CC(F)C6)nc4c3F)c12 (stereo not given) + COc1c(OCCCN2CCOCC2)ccc2c3n(c(=NC(=O)c4cnc(N)nc4)nc12)CCN3
IC50 (curve of first compound, second compound 0.00316 µM): 5090 nM | IC50 (curve of first compound, second compound 0.01 µM): 2250 nM | IC50 [1]: 586 nM | IC50 [2]: 81.8 nM | IC50 [3]: < 31.6 nM | IC50 [4]: < 31.6 nM | viability, T/C (second compound 0.00316 µM, first compound 0.0316 µM): 97.9% | viability, T/C (second compound 0.00316 µM, first compound 0.1 µM): 91.9% | viability, T/C (second compound 0.00316 µM, first compound 0.316 µM): 75.3% | viability, T/C (second compound 0.00316 µM, first compound 1 µM): 70.9% | viability, T/C (second compound 0.00316 µM, first compound 3.16 µM): 57% | viability, T/C (second compound 0.00316 µM, first compound 10 µM): 40.7% | viability, T/C (second compound 0.01 µM, first compound 0.0316 µM): 101% | viability, T/C (second compound 0.01 µM, first compound 0.1 µM): 86.4% | viability, T/C (second compound 0.01 µM, first compound 0.316 µM): 103% | viability, T/C (second compound 0.01 µM, first compound 1 µM): 65.2% | viability, T/C (second compound 0.01 µM, first compound 3.16 µM): 46.5% | viability, T/C (second compound 0.01 µM, first compound 10 µM): 29.2% | viability, T/C [5]: 66.4% | viability, T/C [6]: 72.4% | viability, T/C [7]: 53.6% | viability, T/C [8]: 44.4% | viability, T/C [9]: 31% | viability, T/C [10]: 22.5% | viability, T/C [11]: 57.5% | viability, T/C [12]: 46.2% | viability, T/C [13]: 39.9% | viability, T/C [14]: 23% | viability, T/C [15]: 24.2% | viability, T/C [16]: 21.8% | viability, T/C [17]: 34.4% | viability, T/C [18]: 29.5% | viability, T/C [19]: 27.7% | viability, T/C [20]: 25.1% | viability, T/C [21]: 25.6% | viability, T/C [22]: 19.9% | viability, T/C [23]: 27.3% | viability, T/C [24]: 30.4% | viability, T/C [25]: 34.1% | viability, T/C [26]: 24.6% | viability, T/C [27]: 22.2% | viability, T/C [28]: 23.9%

CC(=O)c1c(C)c2cnc(Nc3ccc(N4CCNCC4)cn3)nc2n(C2CCCC2)c1=O + Cc1nc(NC(=O)N2CCCC2C(N)=O)sc1-c1ccnc(C(C)(C)C(F)(F)F)c1
IC50 [1]: > 100 nM | IC50 [2]: > 100 nM | IC50 [3]: 58.2 nM | IC50 [4]: 27.8 nM | IC50 [29]: 2.55 nM | IC50 [30]: < 0.316 nM | viability, T/C (second compound 0.0316 µM, first compound 0.000316 µM): 104% | viability, T/C (second compound 0.0316 µM, first compound 0.001 µM): 95.7% | viability, T/C (second compound 0.0316 µM, first compound 0.00316 µM): 112% | viability, T/C (second compound 0.0316 µM, first compound 0.01 µM): 102% | viability, T/C [5]: 74.8% | viability, T/C [6]: 55.9% | viability, T/C (second compound 0.1 µM, first compound 0.000316 µM): 94.4% | viability, T/C (second compound 0.1 µM, first compound 0.001 µM): 96.5% | viability, T/C (second compound 0.1 µM, first compound 0.00316 µM): 89.4% | viability, T/C (second compound 0.1 µM, first compound 0.01 µM): 78.5% | viability, T/C [11]: 85.7% | viability, T/C [12]: 52.8% | viability, T/C (second compound 0.316 µM, first compound 0.000316 µM): 87.8% | viability, T/C (second compound 0.316 µM, first compound 0.001 µM): 75% | viability, T/C (second compound 0.316 µM, first compound 0.00316 µM): 63.4% | viability, T/C (second compound 0.316 µM, first compound 0.01 µM): 80.7% | viability, T/C [17]: 51.6% | viability, T/C [18]: 44.1% | viability, T/C (second compound 1 µM, first compound 0.000316 µM): 77% | viability, T/C (second compound 1 µM, first compound 0.001 µM): 49.8% | viability, T/C (second compound 1 µM, first compound 0.00316 µM): 63.3% | viability, T/C (second compound 1 µM, first compound 0.01 µM): 76.4% | viability, T/C [23]: 47.9% | viability, T/C [24]: 31.1% | viability, T/C (second compound 3.16 µM, first compound 0.000316 µM): 67.2% | viability, T/C (second compound 3.16 µM, first compound 0.001 µM): 61.8% | viability, T/C (second compound 3.16 µM, first compound 0.00316 µM): 43.7% | viability, T/C (second compound 3.16 µM, first compound 0.01 µM): 42% | viability, T/C [31]: 33.1% | viability, T/C [32]: 29.9% | viability, T/C (second compound 10 µM, first compound 0.000316 µM): 39.5% | viability, T/C (second compound 10 µM, first compound 0.001 µM): 40% | viability, T/C (second compound 10 µM, first compound 0.00316 µM): 35.3% | viability, T/C (second compound 10 µM, first compound 0.01 µM): 37.2% | viability, T/C [33]: 33.3% | viability, T/C [34]: 26.5%

C[C@@H](NC(=O)c1ncnc(N)c1Cl)c1ncc(C(=O)Nc2cc(C(F)(F)F)c(Cl)cn2)s1 + CC(Nc1ncnc2nc[nH]c12)c1cc2cccc(Cl)c2c(=O)n1-c1ccccc1
IC50 [1]: > 10000 nM | IC50 [2]: > 10000 nM | IC50 [3]: > 10000 nM | IC50 [4]: > 10000 nM | IC50 [29]: > 10000 nM | IC50 [30]: > 10000 nM | viability, T/C [5]: 104% | viability, T/C [6]: 103% | viability, T/C [7]: 90.1% | viability, T/C [8]: 120% | viability, T/C [9]: 109% | viability, T/C [10]: 75.6% | viability, T/C [11]: 109% | viability, T/C [12]: 138% | viability, T/C [13]: 123% | viability, T/C [14]: 99.8% | viability, T/C [15]: 98.2% | viability, T/C [16]: 111% | viability, T/C [17]: 123% | viability, T/C [18]: 84.5% | viability, T/C [19]: 118% | viability, T/C [20]: 127% | viability, T/C [21]: 98.3% | viability, T/C [22]: 107% | viability, T/C [23]: 97.8% | viability, T/C [24]: 86.6% | viability, T/C [25]: 126% | viability, T/C [26]: 95.1% | viability, T/C [27]: 117% | viability, T/C [28]: 69.8% | viability, T/C [31]: 91.8% | viability, T/C [32]: 116% | viability, T/C (second compound 3.16 µM, first compound 0.316 µM): 109% | viability, T/C (second compound 3.16 µM, first compound 1 µM): 104% | viability, T/C (second compound 3.16 µM, first compound 3.16 µM): 90% | viability, T/C (second compound 3.16 µM, first compound 10 µM): 70% | viability, T/C [33]: 81.4% | viability, T/C [34]: 88.5% | viability, T/C (second compound 10 µM, first compound 0.316 µM): 98.7% | viability, T/C (second compound 10 µM, first compound 1 µM): 92.9% | viability, T/C (second compound 10 µM, first compound 3.16 µM): 87.8% | viability, T/C (second compound 10 µM, first compound 10 µM): 60.8%

CC(C)NCC(C(=O)N1CCN(c2ncnc3c2C(C)CC3O)CC1)c1ccc(Cl)cc1 (stereo not given)
viability, T/C (compound 0.1 µM): 85.6% [middle of 4 runs] | viability, T/C (compound 0.316 µM): 86.1% [middle of 4 runs] | viability, T/C (compound 1 µM): 74.3% [middle of 4 runs] | IC50 (curve of compound): > 10000 nM and 1870 nM and 5860 nM
